Measured values published in patent US6503885B1, “Carboxymethylgalactose derivatives” (Otsuka Pharmaceutical Co., Ltd., priority 1998, dated 2003).

Tests used:
Format in all cases: cell-based
P-selectin-IgG = assay: Binding inhibitory activity test: HL-60 cell binding to immobilized P-selectin-IgG; conditions: 0.3 mM test compound; HL-60 cells; 20 ng P-selectin-IgG per well; average of 5 wells ± SE
L-selectin-IgG = assay: Binding inhibitory activity test: HL-60 cell binding to immobilized L-selectin-IgG; conditions: 0.3 mM test compound; HL-60 cells; 100 ng L-selectin-IgG; average of 5 wells ± SE
Protocol: [The source words this procedure for another target and says it was used here with some conditions changed.] (§1) The binding inhibitory activity of the test compound was measured in terms of the inhibition of binding of premyelocytic leukemia HL-60 cells to immobilized recombinant selectin-IgG fusion proteins by addition of the test compound to the binding reaction system, in accordance with the method described in the above-identified reference.
(§2) Stated more specifically, 20 ng of purified P-selectin-IgG was added to each well of a microtiter plate (96 wells, Nunc Maxisorp) and immobilized. Phosphate buffered saline (PBS) was added to each well to make a total volume of 100 μl and the plate was allowed to stand at 4° C. overnight. The excess solution was removed by aspiration, and non-specific binding sites were blocked with PBS containing 1% bovine serum albumin (BSA) at room temperature for 1 hour. After removal of the blocking solution by aspiration, 0.3 mM of the test compound as dissolved in 100 μl of a binding buffer (RPMI1640), and 10^6 cells/ml of HL-60 cells as suspended in 100 μl of the binding buffer were added to each well. The plate was centrifuged at 500 rotations per minute for 2 minutes at room temperature, and each well was filled with the binding buffer. The plate was carefully sealed with an adhesive tape so as to avoid trapping any air bubbles. The plate was turned upside down and centrifuged at 500 rotations per minute for 10 minutes to remove unbound HL-60 cells. The adhesive tape was peeled off and the buffer was removed by aspiration. The number of cells bound/well was determined using a cell counting kit (WST-1 assay kit, product of Dojin Kagaku K.K.) (M. Ishiyama. M. Shiga, M. Mizoguchi and P. He, Chem. Pharm. Bull., 41, 1118-1122 (1994)).
(§3) The binding inhibition (%) was calculated from the number (M) of bound cells achieved in the test using the test compound and the number (N) of bound cells achieved in the comparative test not using the test compound, according to the following equation:
(§4) Binding inhibition (%)=100×(N−M)/N […]
(§5) The data were expressed as an average value of 5 wells±standard error (SE).

E-selectin-IgG = assay: Binding inhibitory activity test: HL-60 cell binding to immobilized E-selectin-IgG; conditions: 0.3 mM test compound; HL-60 cells; 40 ng E-selectin-IgG; average of 5 wells ± SE
Protocol: [The source words this procedure for another target and says it was used here with some conditions changed.] as §1, §2, §3, §4, §5

| Compound | Binding inhibition (%) P-selectin (P-selectin-IgG) | Binding inhibition (%) L-selectin (L-selectin-IgG) | Binding inhibition (%) E-selectin (E-selectin-IgG) |
| --- | --- | --- | --- |
| CCCCCCCCCCCCCCC(CCCCCCCCCCCCCC)CO[C@@H]1O[C@H](CO)[C@H](O)[C@H](OS(=O)(=O)O)[C@H]1O [Comparative compound, 2-(tetradecyl)hexadecyl 3-O-sulfo-β-D-galactopyranoside] | 6 ± 3% | 13 ± 3% | 0 ± 5% |
| sialyl Lewis-x [SLe^x] | 3 ± 6% | 0 ± 5% | 0 ± 4% |
| CCCCCCCCCCCCCCC(CCCCCCCCCCCCCC)CO[C@@H]1O[C@H](CO)[C@H](O)[C@H](CC(=O)O)[C@H]1O [Compound of the invention, 2-(tetradecyl)hexadecyl 3-deoxy-3-C-(carboxymethyl)-β-D-glactopyranoside] | 79 ± 3% | 92 ± 3% | 12 ± 8% |
